The values below come from ChEMBL document CHEMBL1128625, “Synthesis and antibacterial activity of cephalosporins having C-3 catechol-containing (pyridinium-4-thio)-methyl groups” (1995).

Experiment [1] relates to Escherichia coli. Kind of experiment: In vitro antibacterial activity against Escherichia coli NIHJ JC-2 bacteria. In kind it is functional.
For experiment [2], the species on record is Mus musculus. Kind of experiment: Challenged dose in mouse infected with Pseudomonas aeruginosa E-2. It is filed as functional.
Experiment [3] relates to Pseudomonas aeruginosa. Kind of experiment: In vitro antibacterial activity against Pseudomonas aeruginosa NCTC-10490 bacteria. It is filed as functional.
The subject of experiment [4] is Pseudomonas aeruginosa. Kind of experiment: In vitro antibacterial activity against Pseudomonas aeruginosa ATCC 10145 bacteria. It is filed as functional.
The test system of experiment [5] is Staphylococcus aureus. Kind of experiment: In vitro antibacterial activity against Staphylococcus aureus FDA 209P bacteria. It is filed as functional.
Experiment [6] deals with Mus musculus. In words: In vivo therapeutic efficacy against systemic infections in mice using Pseudomonas aeruginosa E-2 as a test organism. In kind it is functional.
Experiment [7] has as its system Pseudomonas aeruginosa. In words: In vivo therapeutic efficacy against systemic infections in mice using Pseudomonas aeruginosa E-2 as a test organism.
Experiment [8] concerns Mus musculus. In words: In vivo therapeutic efficacy against systemic infections in mice using Pseudomonas aeruginosa E-2 as a test organism. It is filed as functional.

Values after ≈ are worked out from the molar mass of the structure shown. A value given as a limit tells only on which side of the number the result lay.

The MIC is the lowest concentration that inhibits growth of the organism. Low values mean inhibition by little substance, high ones a need for much substance. By ED50 is commonly meant the dose that gives a 50% effect, or the effect in half of the subjects. A low value points to greater potency. `Nc1nc(/C(=N/OCC(=O)O)C(=O)N[C@@H]2C(=O)N3C(C(=O)[O-])=C(CSc4cc[n+](CC(=O)c5ccc(O)c(O)c5)cc4)CS[C@H]23)cs1`: the MIC was 0.05 µg/mL (≈ 0.0714 µM) in experiment [1]; ≤ 0.025 µg/mL in experiment [3]; 0.1 µg/mL (≈ 0.143 µM) in experiment [4]; 3.13 µg/mL (≈ 4.47 µM) in experiment [5]; 0.1 µg/mL (≈ 0.143 µM) in experiment [7]. This compound came in with a Challenge dose in experiment [2] of 1000000 cells mouse-1. Further, the ED50 in experiment [6] was > 20 mg/kg.

As for `CC(C)(O/N=C(\C(=O)N[C@@H]1C(=O)N2C(C(=O)[O-])=C(C[n+]3ccccc3)CS[C@H]12)c1csc(N)n1)C(=O)O` [CEFTAZIDIME], the MIC came to 0.39 µg/mL (≈ 0.714 µM) in experiment [1]; 1.56 µg/mL (≈ 2.85 µM) in experiment [8]; 0.78 µg/mL (≈ 1.43 µM) in experiment [3]; 1.56 µg/mL (≈ 2.85 µM) in experiment [4]; 3.13 µg/mL (≈ 5.73 µM) in experiment [5]. In addition, the ED50 in experiment [8] is 34.4 mg/kg. For the same compound, the Challenge dose in experiment [2] came out at 1000000 cells mouse-1.

`CO/N=C(\C(=O)N[C@@H]1C(=O)N2C(C(=O)[O-])=C(CSc3cc[n+](CC(=O)c4ccc(O)c(O)c4)cc3)CS[C@H]12)c1csc(N)n1`: the MIC in experiment [1] was 0.1 µg/mL (≈ 0.152 µM); in experiment [3], 0.05 µg/mL (≈ 0.0761 µM); in experiment [4], 0.39 µg/mL (≈ 0.594 µM); in experiment [5], 0.78 µg/mL (≈ 1.19 µM).

In the case of `CC(C)(O/N=C(\C(=O)N[C@@H]1C(=O)N2C(C(=O)[O-])=C(CSc3cc[n+](Cc4cc(O)c(O)cn4)cc3)CS[C@H]12)c1csc(N)n1)C(=O)O`, the MIC is 0.78 µg/mL (≈ 1.11 µM) in experiment [1], 0.05 µg/mL (≈ 0.0712 µM) in experiment [3], 0.39 µg/mL (≈ 0.556 µM) in experiment [4] and 6.25 µg/mL (≈ 8.91 µM) in experiment [5].

Regarding `CC(C)(O/N=C(\C(=O)N[C@@H]1C(=O)N2C(C(=O)[O-])=C(CSc3cc[n+](CC(=O)c4ccc(O)c(O)c4)cc3)CS[C@H]12)c1csc(N)n1)C(=O)O`, the MIC in experiment [1] was 0.1 µg/mL (≈ 0.137 µM); in experiment [3] it was ≤ 0.025 µg/mL; in experiment [4] it was 0.05 µg/mL (≈ 0.0686 µM); in experiment [5], 3.13 µg/mL (≈ 4.29 µM).
